{
  "source": "paper PMC4621012",
  "about": "(Molecules, 2014)",
  "molecular_target": "GRK5 (Bos taurus, UniProt P43249)",
  "sequence (P43249 whole entry)": "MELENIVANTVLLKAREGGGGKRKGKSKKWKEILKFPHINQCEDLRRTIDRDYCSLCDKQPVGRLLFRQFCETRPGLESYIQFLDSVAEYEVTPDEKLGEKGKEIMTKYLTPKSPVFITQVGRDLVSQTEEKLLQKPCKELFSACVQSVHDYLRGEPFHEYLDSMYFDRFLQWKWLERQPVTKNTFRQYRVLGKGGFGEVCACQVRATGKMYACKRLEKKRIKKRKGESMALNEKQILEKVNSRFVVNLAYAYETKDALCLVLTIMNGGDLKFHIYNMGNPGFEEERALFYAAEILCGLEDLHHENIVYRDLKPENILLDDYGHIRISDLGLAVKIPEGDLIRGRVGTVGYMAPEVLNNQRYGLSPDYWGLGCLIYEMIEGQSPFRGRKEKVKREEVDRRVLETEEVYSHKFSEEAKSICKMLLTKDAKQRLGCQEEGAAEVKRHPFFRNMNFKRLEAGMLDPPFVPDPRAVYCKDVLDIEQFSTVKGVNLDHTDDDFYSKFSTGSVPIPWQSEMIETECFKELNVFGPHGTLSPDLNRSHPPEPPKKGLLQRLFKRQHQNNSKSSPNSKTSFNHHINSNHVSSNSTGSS",
  "test": "DSF (ThermoFluor, ANS) melting point shift, dose response, reconfirmed by replating; no Kd",
  "format": "binding",
  "data": [
    {"smiles": "CN[C@@H]1C[C@H]2O[C@@](C)([C@@H]1OC)n1c3ccccc3c3c4c(c5c6ccccc6n2c5c31)C(=O)NC4", "note": "[staurosporine]", "values": [
      {"measurement": "DSF (ThermoFluor, ANS) melting point shift, dose response, reconfirmed by replat", "value": "Staurosporine, which served effectively as a positive control, was not analyzed further."}
    ]}
  ]
}
